Experiment [1] has as its system melanoma cells. Kind of experiment: Co-culture proliferation assay: DMG treated stimulated Jurkat E6-1 with melanoma cells. The note with it: PMA/Ionomycin stimulated Jurkat E6-1 in co-culture. Type of experiment: cell-based. The procedure:
(§1) A proliferation assay was designed to determine the ability of DMG treated cytokine producing cells to inhibit growth of melanoma cell lines, breast cancer cell lines, a prostate cancer cell line, and cervical cancer cell lines. The cytokine bioassays utilizing cell proliferation assays were performed to assess modulation of inflammatory cytokine production by DMG. Cytokine bioassays are well known in the art. (Thorpe R: Developments in Biological Standardization 1999, 97:61-71 and Mire-Sluis AR: Journal of Immunological Methods 1995, 187 (2):191-199)
(§2) The cell lines and murine B16 as indicator cells were used to observe the modulating effects of DMG. The optimum cell number per well for each cell line was determined after titration assay. Stimulated and unstimulated cytokine producing cell lines (Jurkat e6-1, EL-4, MG-63 and U-937) were treated with DMG for 24 hours prior to culture with cancer cell lines. […]
(§3) A proliferation assay was designed to determine the ability of DMG treated cytokine producing cells to inhibit growth of human breast cancer cell lines MCF-7, BT-20 and T47D, human prostrate cancer PC-3 cell line, human cervical cancer Caski and SiHa cell lines and melanoma cell lines. […] The optimum cell number/well for each cell line was determined after a titration assay. […]

Experiment [2] has as its system TNF-α secretion in THP-1 cell line. Kind of experiment: Cytokine bioassay: TNF-α secretion by LPS-stimulated THP-1 cells (L-929 indicator cells). Type of experiment: cell-based. The note with it: 100 mM DMG, 24 h, measured by L-929 cells (FIG. 2). The procedure: (§4) Cytokine bioassays utilizing cell proliferation assays were performed to assess modulation of inflammatory cytokine production by DMG (House-Development in biological Standardization 1999 (97) 13-19). Supernatants from cytokine producing cell lines (untreated control and DMG treated), were added to responder cell lines specific for that cytokine. Proliferation or inhibition of these responder/indicator cells signal the extent of cytokine secreted by the producer cell lines. The optimum cell number/well for each cell line was determined after a titration assay. All suspension producer cell lines such at THP-1, Jurkat E6-1, EL-4 and U-937 were plated on 48 well plates in a concentration of 5×10^6 cells/well, where as adherent producer cells such as LS174T were plated at a concentration of 5×10^5 cells/well. Suspension responder cell lines (CTLL-2 and 7TD-1) were used at a concentration of 1×10^6 cells/well in a 96 well plate, whereas the adherent responder cell lines (L-929 and A375.S2) were plated at a concentration of 3×10^4 cells/well and 4×10^4 cells/well respectively. THP-1 cells, which secrete Tumor Necrosis Factor-alpha (TNF-α), when stimulated with lipopolysaccharide (LPS), were treated with increasing concentrations of DMG for a period of 24 hours at 37° C. in a humidified 5% CO2 incubator. […] Samples are read at 4 hours using a BIO-RAD benchmark microplate reader at 490 nm. […]

Another experiment concerns Hs 294T melanoma cells. The experiment can be described thus: Co-culture proliferation assay: DMG treated PBMC with Hs 294T melanoma cells. Type of experiment: cell-based. The note with it: Homo sapiens; PBMC treated with 100 mM DMG, Hs 294T co-culture (FIG. 14); read-out: inhibitory effect over controls (melanoma inhibition by PBMC). The procedure:
(§5) Heparinized peripheral blood from healthy control volunteers was collected and layered onto room temperature (RT) polysucrose sodium diatriazoate (Histopaque 1077, Sigma Chemical Co.) in 15-ml conical tubes. These were centrifuged at 400×g for 30 minutes. Mononuclear cells were collected and washed in 10-ml phosphate buffered saline (PBS). Following a 10 min centrifugation and 250×g, the PBS were decanted and the wash step repeated. Cells were counted in a hemocytometer and adjusted to 2×10^6 cells/ml. These cells were later used in cytokine bioassays, Co-culture and in flow cytometry.
(§6) A proliferation assay was designed to determine the ability of DMG treated cytokine producing cells to inhibit growth of human breast cancer cell lines MCF-7, BT-20 and T47D, human prostrate cancer PC-3 cell line, human cervical cancer Caski and SiHa cell lines and melanoma cell lines. Three melanoma cell lines, human A375.S2 and Hs 294T, and murine B16 as indicator cells were used to observe the modulating effects of DMG. The optimum cell number/well for each cell line was determined after a titration assay. Stimulated and unstimulated cytokine producing cell lines (Jurkat E6-1, EL-4, MG-63 and U-937) were treated with DMG for 24 hr prior to culture with melanoma cells. Similarly, PBMC were also treated with DMG and cultured with melanoma cells. […]

Experiment [3] has as its system melanoma cells. Kind of experiment: Co-culture proliferation assay: DMG treated stimulated MG-63 with melanoma cells. Type of experiment: cell-based. The note with it: DMG treated stimulated MG-63 (produces IFN-β) in co-culture. The procedure:
as §1, §2, §3

In experiment [4] the test system is T47D breast cancer cell line. Kind of experiment: Co-culture proliferation assay: DMG treated stimulated PBMC with T47D cells. Type of experiment: cell-based, human. The note with it: DMG treated stimulated PBMC in co-culture (FIG. 20). The procedure: as §5, §6
Experiment [5] deals with IL-2 secretion in EL-4 cell line. Kind of experiment: Cytokine bioassay: IL-2 secretion by EL-4 cells (CTLL-2 responder cells). Type of experiment: cell-based, mouse. The procedure: as §4
The subject of experiment [6] is IL-1 secretion in peripheral blood mononuclear cells. Kind of experiment: Cytokine bioassay: IL-1 secretion by stimulated PBMC (A375.S2 responder cells). Type of experiment: cell-based. The note with it: 100 mM DMG. The procedure: (§7) Heparinized peripheral blood from healthy control volunteers was collected and layered onto room temperature (RT) polysucrose sodium diatriazoate (Histopaque 1077, Sigma Chemical Co.) in 15-ml conical tubes. These were centrifuged at 400×g for 30 minutes. Mononuclear cells were collected and washed in 10-ml phosphate buffered saline (PBS). Following a 10 min centrifugation and 250×g, the PBS were decanted and the wash step repeated. Cells were counted in a hemocytometer and adjusted to 2×10^6 cells/ml. These cells were later used in cytokine bioassays, Co-culture and in flow cytometry. Modulation of inflammatory cytokine production in Peripheral Blood Mononuclear Cells (PBMC) by DMG, was determined by the use of cytokine bioassays. Supernatants of DMG treated and untreated PBMC which produce cytokines (producers) on stimulation with mitogens (PMA and/or lonomycin), were added to responder cell lines specific for the respective cytokine. Proliferation or inhibition of these indicator cells signal the extent of cytokine secretion by the producer cell lines. The optimum cell number/well for each cell line was determined after a titration assay. PBMC were plated on 48 well plates in a concentration of 5×10^6 cells/well. […] Samples are read at 4 hours using a BIO-RAD benchmark microplate reader at 490 nm. […]

The test system of experiment [7] is IL-2 secretion in peripheral blood mononuclear cells. The experiment can be described thus: Cytokine bioassay: IL-2 secretion by stimulated PBMC (HT-2 responder cells). The note with it: 100 mM DMG. Type of experiment: cell-based. The procedure:
as §7

Experiment [8] deals with IL-6 secretion in LS 174T cell line. Kind of experiment: Cytokine bioassay: IL-6 secretion by LS 174T cells (7TD1 responder cells). The note with it: 100 mM DMG, LS 174T (FIG. 6). Type of experiment: cell-based. The procedure: as §4
Experiment [9] concerns A375.S2 melanoma cells. Kind of experiment: Co-culture proliferation assay: DMG treated U-937 with A375.S2 melanoma cells. The note with it: DMG treated U-937 in co-culture. Type of experiment: cell-based, human. The procedure: as §1, §2, §3
Experiment [10] relates to IL-1 secretion in U-937 cell line. Kind of experiment: Cytokine bioassay: IL-1 secretion by U-937 cells (A375.S2 indicator cells). Type of experiment: cell-based. The note with it: detected by decreased proliferation of A375.S2 (FIG. 3). The procedure: as §4
In experiment [11] the test system is MCF-7 breast cancer cell line. The experiment can be described thus: Co-culture proliferation assay: DMG treated stimulated PBMC with MCF-7 cells. Type of experiment: cell-based, human. The note with it: DMG treated stimulated PBMC in co-culture (FIG. 19). The procedure:
as §5, §6

The test system of experiment [12] is T47D breast cancer cell line. The experiment can be described thus: Co-culture proliferation assay: DMG treated Jurkat E6-1 with T47D breast cancer cells. Type of experiment: cell-based, human. The note with it: Jurkat E6-1 treated with DMG 24 hours prior to culture (FIG. 18). The procedure: as §1, §2, §3
Experiment [13] concerns A375.S2 melanoma cells. The experiment can be described thus: Co-culture proliferation assay: DMG treated PBMC with A375.S2 melanoma cells. Type of experiment: cell-based, human. The procedure:
as §5, §6

For experiment [14], the system named is Caski human cervical carcinoma cells. The experiment can be described thus: Co-culture proliferation assay: DMG treated Jurkat E6-1 with Caski cervical cells. Type of experiment: cell-based. The note with it: Jurkat E6-1 treated with DMG 24 hours prior to culture (FIG. 22-23). The procedure:
as §1, §2, §3

Experiment [15] has as its system TNF alpha secretion in peripheral blood mononuclear cells. The experiment can be described thus: Cytokine bioassay: TNF-α secretion by stimulated PBMC (L-929 indicator cells). Type of experiment: cell-based. The note with it: 100 mM DMG, PBMC stimulated with PMA and Ionomycin; L-929 indicator cells (FIG. 7). The procedure: as §7
In experiment [16] the test system is SiHa human cervical carcinoma cells. Kind of experiment: Co-culture proliferation assay: DMG treated Jurkat E6-1 with SiHa cervical cells. Type of experiment: cell-based. The note with it: Jurkat E6-1 treated with DMG 24 hours prior to culture (FIG. 24-25). The procedure: as §1, §2, §3
Experiment [17] has as its system prostate adenocarcinoma cell line PC-3. The experiment can be described thus: Co-culture proliferation assay: DMG treated stimulated PBMC with PC-3 prostate cells. Type of experiment: cell-based, human. The note with it: DMG treated stimulated PBMC in co-culture (FIG. 26). The procedure:
as §5, §6

In experiment [18] the test system is MCF-7 breast cancer cells. The experiment can be described thus: Co-culture proliferation assay: DMG treated Jurkat E6-1 with MCF-7 breast cancer cells. The note with it: Jurkat E6-1 treated with DMG 24 hours prior to culture (FIG. 17). Type of experiment: cell-based, human. The procedure: as §1, §2, §3
The test system of experiment [19] is IL-2 secretion in Jurkat E6-1 cell line. The experiment can be described thus: Cytokine bioassay: IL-2 secretion by Jurkat E6-1 cells (CTLL-2 responder cells). Type of experiment: cell-based, human. The procedure: as §4

`CN(C)CC(=O)O` [DMG, N,N-dimethylglycine]: the “increased inhibition of melanoma cells over baseline stimulated control” value in the experiment with melanoma cells [1] came out at 8%. For the same compound, the “increase of TNF-α levels over baseline control levels” value in [2] was determined as 7%. In the experiment on Hs 294T melanoma cells, the inhibition at 100000 µM turned out to be 13%. The melanoma inhibition entry with melanoma cells [3] is “increased level of melanoma inhibition”. For the same compound, in experiment [4], the “inhibition of T47D cell line” value was “dose response inhibition”. In addition, the “increase of IL-2 secretion” value is listed as 2.5% in experiment [5] (10 mM DMG, EL-4 (FIG. 5)) and 3% in experiment [19] (10 mM DMG, Jurkat E6-1 (FIG. 4)). For the same compound, the “increase of IL-2 levels (increase in proliferation of CTLL-2)” value in [5] (100 mM DMG, EL-4 supernatant (FIG. 5)) is 6%; in experiment [19] (100 mM DMG, Jurkat E6-1 supernatant (FIG. 4)), 10%. Besides, in [6], the “enhancement of IL-1 expression levels” value was found to be 8%. Further, the “enhancement of IL-2 expression levels” value in experiment [7] is 10%. The “increase of IL-6 production levels” value in experiment [8] is listed as 7%. The “decrease in the proliferation of A375.S2 cells” value with A375.S2 melanoma cells [9] came to 30%. The “increase of IL-1 secretion” value worked out at 4.5% in experiment [10] (10 mM DMG) and 6.5% in experiment [10] (100 mM DMG). Moreover, the “inhibition of MCF-7 cell line” value in [11] is recorded as “dose response inhibition”. For the same compound, the “inhibition of T47D cells” value in [12] is given as “typical dose dependent effect”. Besides, in the experiment on A375.S2 melanoma cells [13] (PBMC treated with 100 mM DMG, A375.S2 co-culture), the “proliferation decrease in melanoma cell growth over stimulated baseline control” value is 17%. The “A375.S2 proliferation, dose dependence” value with A375.S2 melanoma cells [13] (PBMC treated with increasing concentrations of DMG) is “Significant dose dependent reductions”. Besides, in [14], the “inhibition of Caski cell line” value is reported as “dose response inhibition”. Further, the “increase of TNF-α over stimulated baseline controls” value in experiment [15] turned out to be 9%. For the same compound, the “inhibition of SiHa cell line” value in [16] is listed as “dose response inhibition”. In addition, in experiment [17], the “inhibition of PC-3 cell line” value is listed as “dose response inhibition”. The “inhibition of MCF-7 cells” value in experiment [18] is recorded as “dose dependent effect”.

For orientation: inhibition means the relative decrease from the control value, in per cent.

Values taken from patent US20060183801A1, “Method of preventing or treating breast, prostate and/or cervical cancer with n, n-dimethylglycine” (FoodScience Corporation, priority 2002, published 2006).
